Bridges are numbered along the chain shown (N, C = ends). Where no end group is shown, it is not given here.
Assays:
ASIC1a = details: desensitization: ref 21; closed state: ref 13, 20, 22; cited from earlier work
Text: Animal toxins produced by spiders, snakes, and sea anemones are considered molecular instruments for the study of ASICs gating and promising drug precursors. […] Peptides from spiders and snakes inhibit mostly mammalian ASIC1a channels. […] Peptides Hcr 1b-3 and Hcr 1b-4, electrophysiologically examined in this study, are the closest homologues of Hcr 1b-1 and Hcr 1b-2 (78%–97% of identity) as well as APETx2 (46%–49% of identity) that are attributed to β-defensin-like peptides. […] (Table 2). Despite the absence of the crucial basic residue Arg17 [31] in the sequence ...

rat ASIC3 channel = molecular target: T1, rat ASIC3 channel (Rattus norvegicus, UniProt O35240); experiment: Two-electrode voltage clamp, homomeric ASIC3 transient currents in Xenopus laevis oocytes; type: cell-based; details: mean ± SD, 5 cells
T1 construct: expressed in transfected cells; host or cells: Xenopus laevis oocytes (cRNA injection)
T1 sequence (O35240 1-533): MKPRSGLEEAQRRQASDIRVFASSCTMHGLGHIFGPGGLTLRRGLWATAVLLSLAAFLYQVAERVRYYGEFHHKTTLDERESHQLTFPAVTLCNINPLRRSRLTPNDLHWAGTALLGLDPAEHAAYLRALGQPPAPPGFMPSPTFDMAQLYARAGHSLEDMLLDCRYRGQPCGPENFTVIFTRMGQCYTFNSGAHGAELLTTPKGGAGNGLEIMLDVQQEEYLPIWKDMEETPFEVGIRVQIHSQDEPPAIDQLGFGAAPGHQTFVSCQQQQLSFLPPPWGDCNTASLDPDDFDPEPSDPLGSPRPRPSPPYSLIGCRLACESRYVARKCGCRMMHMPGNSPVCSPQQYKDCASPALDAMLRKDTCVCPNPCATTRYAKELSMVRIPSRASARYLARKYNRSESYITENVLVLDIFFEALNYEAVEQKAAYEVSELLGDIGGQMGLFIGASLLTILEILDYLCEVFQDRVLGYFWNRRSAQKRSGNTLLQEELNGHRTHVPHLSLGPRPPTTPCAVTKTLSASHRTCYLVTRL
Protocol: (§1) The study of the pharmacological profile of the Hcr 1b-3 and Hcr 1b-4 peptides from H. crispa was carried out on two major ion channel subtypes, ASIC1a and ASIC3. Homomeric ASIC1a channels expressed in X. laevis oocytes were activated by a rapid pH drop from 7.8 to 5.5 in 15 s after peptide application. To analyze the effect of HcrTxs on the transient component of the ASIC3 current, the channels were activated by rapid extracellular acidification from pH 7.8 to 4.0, but effects on the sustained ASIC3 current were not studied. The inhibitory activity of three class 1b sea anemone toxins, APETx2, Hcr 1b-1, and Hcr 1b-2, towards ASICs was previously assayed in electrophysiological experiments (Table 2). In addition, we previously reported that the Hcr 1b-3 and Hcr 1b-4 peptides inhibited about 54% and 80% of the ASIC1a current, respectively.
Animal care and animal experiments were performed following the protocol approved by the Animal Care and Use Committee of the Shemyakin-Ovchinnikov Institute of Bioorganic Chemistry, Approval Code: 267/2018; Approval Date: 2 October 2018. RAS. Rat ASIC1a and ASIC3 channels were expressed in Xenopus laevis oocytes after injection of 2.5–10 ng of cRNA, as previously described. After injection oocytes were kept for 2–3 days at 19 °C and then up to 5 days at the temperature of 15–16 °C in sterile ND96 medium (96 mM NaCl, 2 mM KCl, 1.8 mM CaCl2, 1 mM MgCl2, 5 mM HEPES titrated to pH 7.4 with NaOH supplemented with 50 μg/mL of gentamycin). Two-electrode voltage clamp recordings were performed using GeneClamp 500 amplifier (Axon Instruments, Foster City, CA, USA). The data were filtered at 100 Hz and digitized at 1000 Hz by an AD converter L780 (LCard, Moscow, Russia) using in-house software. The solutions were applied to a cell chamber (volume 75 μL). The laminar flow of an external solution of ND96 (pH 7.8) was used at a rate of 1 mL/min. ASIC1a and ASIC3 were activated by a short pH drop from 7.8 to 5.5 or to 4.0 (10 mM MES or 10 mM acetic acid was used as the buffer solution, respectively) in supplementary 0.1% BSA solution. Peptides were applied for up to 15 s before the activation impulse. A value of currents inhibition was calculated as the ratio of the peak current amplitude when the peptide was applied to the average amplitude of the control peak currents before and after the peptide application and expressed as a percentage. To construct the concentration–response curves, a logistic equation was the following: y = ((1 – A)/(1 + ([C]/IC50) nH)) + A; where y is the relative value of current inhibition; C is the peptide concentration; IC50 is the half maximal inhibitory concentration; nH is the Hill coefficient; A is the response value at maximal inhibition (% of control). Calculations were carried out using software Origin 7.0. […]

rat ASIC1a channel = molecular target: T2, rat ASIC1a channel (Rattus norvegicus, UniProt P55926); experiment: Two-electrode voltage clamp, homomeric ASIC1a currents in Xenopus laevis oocytes; type: cell-based
T2 construct: expressed in transfected cells; host or cells: Xenopus laevis oocytes (cRNA injection)
T2 sequence (P55926 1-526): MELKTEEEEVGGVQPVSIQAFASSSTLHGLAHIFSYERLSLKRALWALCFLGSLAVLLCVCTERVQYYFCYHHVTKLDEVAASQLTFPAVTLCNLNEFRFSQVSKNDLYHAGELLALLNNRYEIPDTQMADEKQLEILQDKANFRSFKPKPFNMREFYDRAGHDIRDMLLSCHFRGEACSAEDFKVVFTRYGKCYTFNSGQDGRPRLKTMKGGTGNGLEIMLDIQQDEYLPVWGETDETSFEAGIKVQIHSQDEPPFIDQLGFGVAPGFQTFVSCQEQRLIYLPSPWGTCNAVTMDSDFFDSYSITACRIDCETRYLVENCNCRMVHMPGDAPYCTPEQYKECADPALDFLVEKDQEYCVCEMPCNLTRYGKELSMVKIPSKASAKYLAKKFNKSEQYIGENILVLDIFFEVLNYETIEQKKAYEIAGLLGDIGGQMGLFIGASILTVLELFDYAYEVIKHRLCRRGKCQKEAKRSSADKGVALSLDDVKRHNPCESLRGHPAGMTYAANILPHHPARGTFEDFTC
Protocol: as §1
Animal care and animal experiments were performed following the protocol approved by the Animal Care and Use Committee of the Shemyakin-Ovchinnikov Institute of Bioorganic Chemistry, Approval Code: 267/2018; Approval Date: 2 October 2018. RAS. Rat ASIC1a and ASIC3 channels were expressed in Xenopus laevis oocytes after injection of 2.5–10 ng of cRNA, as previously described. After injection oocytes were kept for 2–3 days at 19 °C and then up to 5 days at the temperature of 15–16 °C in sterile ND96 medium (96 mM NaCl, 2 mM KCl, 1.8 mM CaCl2, 1 mM MgCl2, 5 mM HEPES titrated to pH 7.4 with NaOH supplemented with 50 μg/mL of gentamycin). Two-electrode voltage clamp recordings were performed using GeneClamp 500 amplifier (Axon Instruments, Foster City, CA, USA). The data were filtered at 100 Hz and digitized at 1000 Hz by an AD converter L780 (LCard, Moscow, Russia) using in-house software. The solutions were applied to a cell chamber (volume 75 μL). The laminar flow of an external solution of ND96 (pH 7.8) was used at a rate of 1 mL/min. ASIC1a and ASIC3 were activated by a short pH drop from 7.8 to 5.5 or to 4.0 (10 mM MES or 10 mM acetic acid was used as the buffer solution, respectively) in supplementary 0.1% BSA solution. Peptides were applied for up to 15 s before the activation impulse. A value of currents inhibition was calculated as the ratio of the peak current amplitude when the peptide was applied to the average amplitude of the control peak currents before and after the peptide application and expressed as a percentage. To construct the concentration–response curves, a logistic equation was the following: y = ((1 – A)/(1 + ([C]/IC50) nH)) + A; where y is the relative value of current inhibition; C is the peptide concentration; IC50 is the half maximal inhibitory concentration; nH is the Hill coefficient; A is the response value at maximal inhibition (% of control). Calculations were carried out using software Origin 7.0. The data are presented as mean ± SD.

[1] = test system: models of cerebral ischemia, retinal stroke, optic nerve crush, and Parkinson’s disease; details: cited from earlier work
Text: Animal toxins produced by spiders, snakes, and sea anemones are considered molecular instruments for the study of ASICs gating and promising drug precursors. […] Peptides from spiders and snakes inhibit mostly mammalian ASIC1a channels. Two of ASIC1a inhibitors from spiders, ...

ASIC1b = details: cited from earlier work
Text: It is noteworthy that to increase the current through the ASICs it takes an order of magnitude higher concentration of toxins than to inhibit it. […] No ASIC3 ...

Substance	effect on ASIC1a gating state (ASIC1a)	IC50 (rat ASIC3 channel; X. laevis oocytes, pH drop 7.8 to 4.0 (legend of Figure 4: from 7.4), logistic fit, read-out: IC50, inhibition of transient rASIC3 current) [µM]	A (response value at maximal inhibition, % of control), rASIC3 (rat ASIC3 channel; fit parameter, pH drop to 4.0) [%]	inhibition at 120 µM (rat ASIC1a channel; Hcr 1b-3 at 120 μM, Hcr 1b-4 from concentration–response relationship, read-out: maximal inhibition of ASIC1a current) [%]	IC50 (rat ASIC1a channel; X. laevis oocytes, pH drop 7.8 to 5.5 (legend of Figure 4: from 7.4), peptide applied up to 15 s before, mean ± SD, 5 cells, logistic fit, read-out: IC50, inhibition of rASIC1a current) [µM]	A (response value at maximal inhibition, % of control), rASIC1a (rat ASIC1a channel; fit parameter, pH drop to 5.5, mean ± SD, 5 cells) [%]	neuroprotection [1]	effect on ASIC1b current (ASIC1b)
mambalgin-1: snake toxin from Dendroaspis polylepis (LKCYQHGKVVTCHRDMKFCYHNTGMPFRNLKLILQGCSSSCSETENNKCCSTDRCNK; UniProt P0DKR6 22-78, looked up)	stabilize the closed channels state							
GTPCKCHGYIGVYWFMLAGCPDGYGYNLSCPYFLGICCVKK (disulfide 4-37, 6-30, 20-38) [Hcr 1b-3]		17 ± 5.8	26 ± 7	70	4.95 ± 0.19	30.3 ± 0.7		
PcTx1: spider toxin from Psalmopoeus cambridgei (EDCIPKWKGCVNRHGDCCEGLECWKRRRSFEVCVPKTPKT; ends and bridges not checked; cysteine pairing not given here; UniProt P60514 1-40, looked up)	promote desensitization of ASIC1a						effective neuroprotectors	potentiate ASIC1b

— article PMC7232172, “APETx-Like Peptides from the Sea Anemone Heteractis crispa, Diverse in Their Effect on ASIC1a and ASIC3 Ion Channels” (Toxins, 2020)
